# Results from patent US5397702A, “Assay for and treatment of autoimmune diseases” (priority 1990, dated 1995).
# Where a chain is given by its changes, count along the chain named. Where two headings read alike, the source gives them in different places.
# Assays:
# rKv3.1 cDNA (Kv4) = conditions: data from Luneau, et al., 1991; read-out: Blockers, Kd / half-blocking dose; cited from earlier work
# [1] = target: T1, type l K+ channel (human) (Homo sapiens, UniProt P48547); test: Patch-clamp pharmacology of type l K+ channels in human Louckes lymphoma cells; assay type: cell-based
# T1 construct: Native channels; endogenous in cells; host or cells: Louckes human B cell lymphoma line
# T1 sequence (P48547 1-511): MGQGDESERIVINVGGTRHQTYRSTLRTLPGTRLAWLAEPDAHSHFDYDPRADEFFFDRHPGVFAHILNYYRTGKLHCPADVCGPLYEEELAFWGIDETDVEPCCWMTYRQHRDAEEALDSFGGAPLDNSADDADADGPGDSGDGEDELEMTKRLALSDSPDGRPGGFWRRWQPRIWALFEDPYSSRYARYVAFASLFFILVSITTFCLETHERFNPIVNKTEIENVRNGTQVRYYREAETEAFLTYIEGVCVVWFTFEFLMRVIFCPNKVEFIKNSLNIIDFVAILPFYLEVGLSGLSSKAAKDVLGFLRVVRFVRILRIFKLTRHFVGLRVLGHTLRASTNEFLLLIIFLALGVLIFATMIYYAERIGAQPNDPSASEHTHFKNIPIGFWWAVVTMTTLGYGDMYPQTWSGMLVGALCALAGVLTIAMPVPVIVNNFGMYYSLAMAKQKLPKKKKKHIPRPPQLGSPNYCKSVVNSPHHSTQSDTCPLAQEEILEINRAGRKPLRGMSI
# Description: For the two-electrode voltage-clamp experiments, cells were bathed in oocyte Ringer solution containing 96mM NaCl, 2 mM KCl, 1.8 mM CaCl2, 1 mM MgCl2, 5 mM N-2-hydroxyethylpiperazine-N'-2-ethanesulfonic acid (HEPES), and adjusted to pH 7.5 with NaOH. The pipette solution was 3 M KCl. Patch-clamp experiments were carried out under identical conditions in oocytes and in T cells, using a mammalian Ringer solution containing 160 mM NaCl, 4.5 mM KCl, 2 mM CaCl2,1 mM MgCl2, 5 mM HEPES, and adjusted to pH 7.4 with NaOH and a total osmolarity of 290-320 mosm/kg. Internal (pipette) solutions contained: 140 mM KF, 2 mM MgCl2, 1 mM CaCl2, 5mM HEPES, 11 mM K2 -ethylene glycol-bis(β-aminoethylether)N,N,N',N'-tetraacetic acid (EGTA). CTX was purchased from Latoxan (IBF-Biotechnics, Inc., Columbia, Md.).
# (§1) The patch-clamp amplifier (List L/M-EPC 7, Adams and List Associates, Ltd., Great Neck, N.Y.) was used in the voltage-clamp mode without series resistance compensation. Patchclamp electrodes were pulled from Accu-fill 90 Micropets (Becton, Dickinson & Co., Parsippany, N.J.) in three stages, coated with Sylgard (Dow Corning Corp., Midland, Mich.) and fire-polished to resistances, measured in the bath, of 2-7 M.OMEGA.. In all patch-clamp experiments, the command input of the patch-clamp amplifier was controlled by a PDP 11/73 computer via a digital-analog converter, and membrane currents were recorded at a bandwidth of 2 kHz. The holding potential was adjusted in all experiments to E=-80 mV. Correction for capacitative currents was achieved by analog subtraction.
# Type l Channels in a Human Lymphoma Line: The human B cell lymphoma line, Louckes, has been reported to express large numbers of type l K+ channels (Shapiro and DeCoursey, (1988) Biophys. J. 53, 550a). We have confirmed that Louckes cells display a K+ channel with gating kinetics and pharmacological sensitivities indistinguishable from the type l K+ channels of mouse T cells (Table I and II). Because Louckes is a human cell line, it should be possible to compare the Kv3.1 transcripts isolated from these cells with Kv3.1 transcripts isolated from mouse T cells.
# mKv3.1a cDNA (NGK2) = conditions: data from Yokoyama, et al., 1989, cited from earlier work
# [2] = target: T2, type l K+ channel (mouse) (Mus musculus, UniProt P15388); conditions: cited from earlier work; for effect on type l K+ channels, in words: MRL-lpr mice / mouse lymphocytes
# T2 construct: Native channels; endogenous in cells; host or cells: mouse T cells (CD4-CD8- T cells of autoimmune strains such as MRL-lpr; normal cytotoxic T cells)
# T2 sequence (P15388 1-511): T1 sequence (P48547 1-511) with I265V
# type n channels = conditions: cited from earlier work
# [3] = target: T3, type n K+ channel (human) (Homo sapiens, UniProt P22001); test: Patch-clamp pharmacology of type n K+ channels in human T cells; assay type: cell-based; conditions: for Kd: data from this paper
# T3 construct: Native channels; endogenous in cells; host or cells: human T cells
# T3 sequence (P22001 whole entry): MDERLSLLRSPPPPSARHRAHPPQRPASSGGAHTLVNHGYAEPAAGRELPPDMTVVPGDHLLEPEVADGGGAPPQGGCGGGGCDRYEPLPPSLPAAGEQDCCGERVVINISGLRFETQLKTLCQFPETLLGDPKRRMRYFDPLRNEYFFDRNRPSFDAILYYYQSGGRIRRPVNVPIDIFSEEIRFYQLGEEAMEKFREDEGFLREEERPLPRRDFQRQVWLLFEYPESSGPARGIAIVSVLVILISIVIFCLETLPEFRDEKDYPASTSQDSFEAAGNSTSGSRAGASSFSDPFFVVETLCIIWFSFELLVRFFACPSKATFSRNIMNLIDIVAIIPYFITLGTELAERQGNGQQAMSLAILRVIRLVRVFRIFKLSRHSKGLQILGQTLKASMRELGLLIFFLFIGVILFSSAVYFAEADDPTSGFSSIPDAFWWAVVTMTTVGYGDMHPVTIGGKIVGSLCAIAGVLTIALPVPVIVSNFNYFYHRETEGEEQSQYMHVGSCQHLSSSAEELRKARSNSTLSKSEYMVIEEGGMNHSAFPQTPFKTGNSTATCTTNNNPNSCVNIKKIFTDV
# Excerpt: (§2) The pipette solution was 3 M KCl. […] CTX was purchased from Latoxan (IBF-Biotechnics, Inc., Columbia, Md.).
# as §1
# mKv3.1b K+ channels = target: T4, mKv3.1b K+ channels (Mus musculus, UniProt P15388); test: cell-based; assay type: cell-based
# T4 construct: expressed in transfected cells; host or cells: Xenopus oocytes injected with mKv3.1b mRNA
# T4 sequence (P15388 1-585 isoform P15388-3): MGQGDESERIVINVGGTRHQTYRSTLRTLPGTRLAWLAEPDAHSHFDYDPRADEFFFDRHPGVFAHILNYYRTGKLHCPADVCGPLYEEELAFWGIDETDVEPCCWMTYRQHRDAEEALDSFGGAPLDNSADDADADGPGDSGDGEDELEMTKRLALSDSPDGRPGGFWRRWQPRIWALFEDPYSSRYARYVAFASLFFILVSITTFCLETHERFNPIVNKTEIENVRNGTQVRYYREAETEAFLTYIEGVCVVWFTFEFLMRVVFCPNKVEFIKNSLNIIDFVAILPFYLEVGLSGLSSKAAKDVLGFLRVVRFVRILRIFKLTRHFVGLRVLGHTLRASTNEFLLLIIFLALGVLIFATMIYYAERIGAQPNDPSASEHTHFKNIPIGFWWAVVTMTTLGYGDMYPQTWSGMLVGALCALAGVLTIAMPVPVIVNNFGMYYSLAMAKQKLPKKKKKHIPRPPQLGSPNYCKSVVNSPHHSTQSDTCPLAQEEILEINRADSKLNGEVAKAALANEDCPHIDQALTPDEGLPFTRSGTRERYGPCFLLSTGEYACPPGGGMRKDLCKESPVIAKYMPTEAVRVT
# Description: For transcription, the plasmid was linearized by digestion with SacI in the polylinker.
# All experiments were done at room temperature (22°-26°C.).
# as §2, §1
# Mouse Kv3.1b Expression in Oocytes: Xenopus oocytes express a high density of voltage-activated K+ channels following injection of mKv3.1b mRNA. […] Single channel recordings were done on outside-out patches from these oocytes, whereas gating and inactivation kinetics and pharmacological sensitivities were determined using outside-out patches of oocyte membrane injected with a 10 times more concentrated mRNA solution (50 nl of 0.1 μg/μ^1 mRNA).
# [4] = target: T5, type n K+ channel (mouse) (Mus musculus, UniProt P16390); test: Patch-clamp pharmacology of type n K+ channels in mouse T cells; assay type: cell-based
# T5 construct: Native channels; endogenous in cells; host or cells: mouse T cells
# T5 sequence (P16390 whole entry): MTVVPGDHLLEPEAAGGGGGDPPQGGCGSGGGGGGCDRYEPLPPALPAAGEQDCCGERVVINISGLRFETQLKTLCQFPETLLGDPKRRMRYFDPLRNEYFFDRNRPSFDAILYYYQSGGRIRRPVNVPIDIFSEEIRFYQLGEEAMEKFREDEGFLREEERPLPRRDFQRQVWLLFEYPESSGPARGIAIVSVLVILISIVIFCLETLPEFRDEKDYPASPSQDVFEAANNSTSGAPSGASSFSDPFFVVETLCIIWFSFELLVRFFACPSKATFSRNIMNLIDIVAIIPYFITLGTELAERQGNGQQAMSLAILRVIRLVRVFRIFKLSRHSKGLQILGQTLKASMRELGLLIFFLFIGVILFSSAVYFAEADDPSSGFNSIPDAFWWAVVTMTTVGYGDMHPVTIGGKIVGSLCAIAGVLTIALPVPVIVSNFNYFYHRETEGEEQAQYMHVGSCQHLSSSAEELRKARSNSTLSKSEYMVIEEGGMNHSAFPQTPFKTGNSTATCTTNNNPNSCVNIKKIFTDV
# Description: (§3) A gigohm seal patch-clamp technique was employed [Hamill, et al., Pflugers Arch. […] Cells were separated and stained as described infra. Maximum K^+ conductances (gk) Of CD4^- CD8^- Thy-l.2^+ T cells were determined from the maximum peak K^+ current elicited at +40 mV (holding potential -80 mV), assuming a reversal potential for K^+ of -80 mV. All experiments were done at room temperature (22° to 26° C.). The cells under investigation were bathed in Ringer solution (in mM): 160 NaCl, 4.5 KCl, 2 MgCl2, 1 CaCl2, 2 MgCl2, and 10 K-HEPES (pH 7.4). […] Each point represents gk in one single cell except the ones with the bars that reflect the mean±SD of previously reported data. The data from C3H (n=12), C3H-lpr (n=22), C3H-gld (n=26), and MRL-lpr (n=31) are taken from Grissmer, et al., J. Immunol. […] Three types of voltage-gated K^+ channels (n, l, n') are expressed by murine T cells, which can be distinguished by electrophysiological and pharmacological criteria. DeCoursey, et al., J. Gen.
# (§4) K^+ channels were identified on the basis of their inactivation properties, channel closing kinetics, and sensitivity to block by tetraethylammonium (TEA). Typically type n K^+ channels are use-dependent, i.e., show cumulative inactivation by repetitive depolarizing pulses. Use dependence was determined by measuring the decline in the size of the peak K^+ current elicited with one per second repetitive depolarizing pulses of 200 ms duration.
# (§5) (5) Electrophysiology: After phenotypic identification by epifluorescence microscopy, single T cells were patch-clamped at room temperature (22° to 26° C).
# (§6) Solutions: The cells under investigation were bathed in normal mammalian Ringer solution containing (in mM): 160 NaCl, 4.5 KCl, 2 MgCl2, 1CaCl2, and 5 Na-HEPES (pH 7.4). […] In Ringer solutions containing tetraethylammonium chloride (TEA^+), NaCl was replaced by the appropriate TEA^+ concentrations keeping the osmolarity constant. The bath solution could be changed during recordings by bath perfusion.
# [5] = target: T3, type n K+ channel (human); conditions: data from DeCoursey, et al., 1984, Sands, 1989, read-out: Blockers, Kd / half-blocking dose; cited from earlier work
# [6] = target: T2, type l K+ channel (mouse); test: Patch-clamp pharmacology of type l K+ channels in mouse T cells; assay type: cell-based; conditions: for Kd: data from this paper
# Description: as §3, §4, §5, §6
# [7] = target: T5, type n K+ channel (mouse); conditions: cited from earlier work
# [8] = Louckes cells, read-out: Blockers, Kd / half-blocking dose
# [9] = 20 mM Co^2+, data from DeCoursey, et al., 1987
# [10] = 20 mM Co^2+, data from this paper
# [11] = data from DeCoursey, et al., 1987, read-out: Blockers, Kd / half-blocking dose
# [12] = first value, read-out: apparent dissociation constant Kd, from reduction of the integral under the current trace
# [13] = second value, read-out: apparent dissociation constant Kd, from reduction of the peak current amplitude
structure (smiles),measurement,setting,value
"Nc1ccncc1 [4-AP, 4-aminopyridine]",Kd,rKv3.1 cDNA (Kv4),300 µM
same,Kd,[1]; [8],< 100 µM
same,Kd,"mKv3.1a cDNA (NGK2); read-out: Blockers, Kd / half-blocking dose",600 µM
[Co+2] [Co^2+],Effect of 20 mM Co^2+: block gK(Co)/gK,[2]; [9],0.9
same,Effect of 20 mM Co^2+: shift ΔEn,[2]; [9],36 mV
same,"effect on type l K+ channels, in words",[2],"strongly shift the voltage dependence of activation to more depolarized potentials, with minimal blocking"
same,"effect on type n channels, in words",type n channels,strongly blocked
same,Effect of Co^2+: block gK(Co)/gK,[3]; 10 mM Co^2+ (*),0.2
same,Effect of Co^2+: shift ΔEn,[3]; 10 mM Co^2+ (*),28 mV
same,Effect of 20 mM Co^2+: block gK(Co)/gK,mKv3.1b K+ channels; 20 mM Co^2+,0.75
same,Effect of 20 mM Co^2+: shift ΔEn,mKv3.1b K+ channels; 20 mM Co^2+,30 mV
same,Effect of 20 mM Co^2+: block gK(Co)/gK,[1]; 20 mM Co^2+,0.76
same,Effect of 20 mM Co^2+: shift ΔEn,[1]; 20 mM Co^2+,30 mV
same,Effect of 20 mM Co^2+: block gK(Co)/gK,[4]; [10],0.27
same,Effect of 20 mM Co^2+: shift ΔEn,[4]; [10],40 mV
[La+3] [La3+],"effect on type l K+ channels, in words",[2],"strongly shift the voltage dependence of activation to more depolarized potentials, with minimal blocking"
same,"effect on type n channels, in words",type n channels,strongly blocked
"CC[N+](CC)(CC)CC [TEA, tetraethylammonium]",Kd,[2]; [11],80 µM
same,Kd,"[2]; type l channels of murine T cells, read-out: KD / half-blocking dose of block by TEA, identification criterion",100 µM
same,Kd,"mKv3.1b K+ channels; outside-out oocyte patch, pulses to +40 mV from -80 mV, read-out: Blockers, Kd / half-blocking dose",150 µM
same,Kd,[5],8000 µM
same,IC50,[6],100 µM
same,Kd,[1]; [8],120 µM
same,IC50,"[1]; human Louckes lymphoma cells, read-out: half-blocking dose",100 µM
same,IC50,[4],10000 µM
same,Kd,[7]; [11],10000 to 13000 µM
same,Kd,"[7]; type n channels of murine T cells, read-out: KD of block by TEA, identification criterion",8000 µM
C=C[C@H]1C[N@@]2CC[C@H]1C[C@H]2[C@H](O)c1ccnc2ccc(OC)cc12 [quinine],Kd,[3]; [12],13 µM
same,Kd,[3]; [13],24 µM
same,Kd,"mKv3.1b K+ channels; 200 ms steps from -80 mV to 40 mV, first value, read-out: apparent dissociation constant Kd, from reduction of the integral under the current trace",4 µM
same,"effect on mKv3.1b K+ currents, in words",mKv3.1b K+ channels; oocytes,"increased the apparent rate of mKv3.1b K+ current inactivation, and produced ""use-dependent"" block"
same,Kd,mKv3.1b K+ channels; [13],20 µM
same,Kd,[6]; [12],10 µM
same,Kd,[6]; [13],19 µM
same,Kd,[1]; [12],10 µM
same,Kd,[1]; [13],20 µM
same,Kd,"mKv3.1a cDNA (NGK2); read-out: Blockers, quinine",1000 µM
